ChEMBL document CHEMBL1817579, “Activation and inhibition of CTP synthase from Trypanosoma brucei, the causative agent of African sleeping sickness” (Bioorg Med Chem Lett, 2011)
Blank lines part the entries; values can stand above or below the compound they belong to. Active and inactive are the calls of the source. No cut-off for these calls is given here.

Key:
[1] = Inhibition of N-terminal His6-tagged Trypanosoma brucei CTPS assessed as NH3-dependent CTP formation by continuous spectrophotometric assay
Escherichia coli [2] = test: Inhibition of Escherichia coli CTPS assessed as Gln-dependent CTP formation at > 0.15 mM by continuous spectrophotometric assay
Trypanosoma brucei [3] = test: Inhibition of N-terminal His6-tagged Trypanosoma brucei CTPS assessed as Gln-dependent CTP formation at > 0.2 mM by continuous spectrophotometric assay
Trypanosoma brucei [4] = test: Inhibition of N-terminal His6-tagged Trypanosoma brucei CTPS assessed as Gln-dependent CTP formation at by continuous spectrophotometric assay
Trypanosoma brucei [5] = test: Activation of N-terminal His6-tagged Trypanosoma brucei CTPS assessed as Gln-dependent CTP formation by continuous spectrophotometric assay
Trypanosoma brucei [6] = test: Activation of N-terminal His6-tagged Trypanosoma brucei CTPS assessed as Gln-dependent CTP formation at <0.2 mM by continuous spectrophotometric assay
Escherichia coli [7] = test: Activation of Escherichia coli CTPS assessed as Gln-dependent CTP formation at < 0.15 mM by continuous spectrophotometric assay
Trypanosoma brucei [8] = details: 494.32 mM
Description: Inhibition of N-terminal His6-tagged Trypanosoma brucei CTPS assessed as conversion of UTP to CTP at 494.32 mM at pH 7.3 by continuous spectrophotometric assay

Escherichia coli [9] = system: Escherichia coli
[10] = Activity of N-terminal His6-tagged Trypanosoma brucei CTPS assessed as conversion of UTP to CTP at pH 7.3 by continuous spectrophotometric assay
[11] = Activity of Escherichia coli CTPS assessed as conversion of UTP to CTP at pH 7.3 by continuous spectrophotometric assay
Trypanosoma brucei [12] = system: Trypanosoma brucei
Description: Ratio of Kcat to Km for N-terminal His6-tagged Trypanosoma brucei CTPS assessed as conversion of UTP to CTP by continuous spectrophotometric assay

Trypanosoma brucei [13] = system: Trypanosoma brucei; remark: listed apart in the source
Escherichia coli [14] = system: Escherichia coli; remark: listed apart in the source
Description: Ratio of Kcat to Km for Escherichia coli CTPS assessed as conversion of UTP to CTP by continuous spectrophotometric assay

Trypanosoma brucei [15] = details: 5.67 mM
Description: Inhibition of N-terminal His6-tagged Trypanosoma brucei CTPS assessed as conversion of UTP to CTP at 5.67 mM by continuous spectrophotometric assay

Compound: Oc1nc(O)c2nc(O)[nH]c2n1 [URIC ACID]
IC50 [1]: 100 µM

Ki [1]: 272 µM
inhibition (Escherichia coli [2]): Active
inhibition (Trypanosoma brucei [3]): Active
inhibition (Trypanosoma brucei [4]): Active
KA (Trypanosoma brucei [5]): 57 µM
Kact (Trypanosoma brucei [5]): 0.87 s⁻¹
Activity (Trypanosoma brucei [6]): Active
kcat (Escherichia coli [7]): 10.6 s⁻¹
Compound: Nc1nc(=O)c2ncn([C@@H]3O[C@H](COP(=O)(O)OP(=O)(O)OP(=O)(O)O)[C@@H](O)C3O)c2[nH]1 (single isomer, unassigned) [GTP]
IC50 [1]: 460 µM

Compound: Cn1c(=O)c2c(ncn2C)n(C)c1=O [CAFFEINE]
IC50 [1]: 480 µM

inhibition (Trypanosoma brucei [8]): Active
Ks (Escherichia coli [9]): 1.1 mM
kcat (Escherichia coli [9]): 4.4 s⁻¹
Ki [10]: 5700 µM
Ki [11]: 1400 µM
kcat/Km (Trypanosoma brucei [12]): 727 M⁻¹ s⁻¹
Ks (Trypanosoma brucei [13]): 2.2 mM
kcat (Trypanosoma brucei [13]): 1.6 s⁻¹
kcat/Km (Escherichia coli [14]): 4 ×10³ /M/s
inhibition (Trypanosoma brucei [15]): Active
Compound: N [AMMONIA SOLUTION, STRONG]

Compound: Nc1nc2c(ncn2[C@@H]2O[C@H](CO)[C@@H](O)[C@H]2O)c(=O)[nH]1 [GUANOSINE]
IC50 [1]: 380 µM
